Here are results for eight molecules from article PMC7496508, “Modular Medical Imaging Agents Based on Azide–Alkyne Huisgen Cycloadditions: Synthesis and Pre‐Clinical Evaluation of ^18F‐Labeled PSMA‐Tracers for Prostate Cancer Imaging” (Chemistry (Weinheim an Der Bergstrasse, Germany), 2020).

SMILES strings stand for the structures. “And” between values parts separate entries of the source, which are not always exact repeats. Equal values may be shown once.

Data set [1] concerns the target T1, PSMA (Homo sapiens, UniProt Q04609).
T1 construct: host or cells: LNCaP cells
Description: competitive binding radioassay with [18F]PSMA-1007 as radioactive competitor on LNCaP cells. How it is done: During the pre‐clinical evaluation of [^18F]PSMA‐MIC01, many hospitals including the University Medical Center Groningen changed from using [^68Ga]PSMA‐11 to [^18F]PSMA‐1007. Therefore, the binding affinities for the 2nd generation PSMA‐tracers‐tracers were determined in a radioassay using [^18F]PSMA‐1007 as radioactive competitor (Figure 1 D). page 20: Table S3. Counts per minute (CPM) of the 3 indidicually measured triplicates of [18F]PSMA-MIC01 of n- octanol and PBS Octanol (CPM) PBS (CPM) BLK (CPM) LogD Mean SD […] No 1.2 2995.66 4176463.25 58.39 -3.15 […] No 2.3 1020.97 1916376.47 30.41 -3.29 -3.22 0.09 6. Cell culture. Prostate cancer cell lines PC-3 and LNCaP were obtained from the American Type Culture Collection (ATCC, Manassas, VA). Cells were cultured in RPMI-1640 (Lonza, Swiss), supplemented with 10 % fetal calf serum (FCS, Thermo Scientific Waltham, MA) at 37°C in a humidified 5 % CO2 atmosphere. To enhance adherence of LNCaP cells tissue culture flasks and/or well plates were pre-coated with poly-D-lysine (Merck) according manufacture protocol. Cells were regularly checked for mycoplasma infection. 6.1. Cell binding studies. For the determination of the binding affinity, a competitive binding radioassay was performed. Two 24 well plates were incubated with 50.000 cells 3 to 4 days prior to the cell experiments. After washing the cells twice with warm PBS, new medium was added. For the binding […] cold reference compound F-PSMA-MIC01 were added to the wells shortly before 50 µL of the radioligand [68Ga]PSMA-HBED-CC or [18F]PSMA-1007 to reach a final volume of 500 µL in each well. After incubation of 90 min at 37°C under humidified conditions the cells were washed twice with ice-cold PBS to remove unbound tracer. Cells were detached from the wells using Trypsin supplemented with 25 % EDTA and incubated until cells were completely detached. 900 µL of medium was added and cells were transferred into tubes. The remaining activity in the cells were measured in a γ-counter. Afterwards, the cells were counted in a 1:1 solution of cell suspension and Trypan Blue. The tracer uptake was calculated using Microsoft Excel and corrected for the average number of cells and averaged. The logIC50 value was calculated using the non-linear regression algorithm for a one-site FITlogIC50 […] The graphs represented show the average of the three individual experiments, while the mentioned logIC50 was calculated from the mean of the three experiments; 19

Data set [2] deals with T1, PSMA. Description: cell-based competitive binding radioassay with [68Ga]PSMA-11 as radioligand on LNCaP cells. How it is done: To compare the binding affinity of F‐PSMA‐MIC01 with „gold standard“ PSMA‐tracers, the same assay was performed using the precursor of [^68Ga]PSMA‐11 (Figure 2 D).
Table S3. Counts per minute (CPM) of the 3 indidicually measured triplicates of [18F]PSMA-MIC01 of n- […]
Octanol (CPM) PBS (CPM) BLK (CPM) LogD Mean SD
Prostate cancer cell lines PC-3 and LNCaP were obtained from the American Type Culture Collection (ATCC, Manassas, VA). Cells were cultured in RPMI-1640 (Lonza, Swiss), supplemented with 10 % fetal calf serum (FCS, Thermo Scientific Waltham, MA) at 37°C in a humidified 5 % CO2 atmosphere. To enhance adherence of LNCaP cells tissue culture flasks and/or well plates were pre-coated with poly-D-lysine (Merck) according manufacture protocol. Cells were regularly checked for mycoplasma infection.
6.1. Cell binding studies.
For the determination of the binding affinity, a competitive binding radioassay was performed.
Two 24 well plates were incubated with 50.000 cells 3 to 4 days prior to the cell experiments.
After washing the cells twice with warm PBS, new medium was added. For the binding […]
cold reference compound F-PSMA-MIC01 were added to the wells shortly before 50 µL of the radioligand [68Ga]PSMA-HBED-CC or [18F]PSMA-1007 to reach a final volume of 500 µL in each well. After incubation of 90 min at 37°C under humidified conditions the cells were washed twice with ice-cold PBS to remove unbound tracer. Cells were detached from the wells using Trypsin supplemented with 25 % EDTA and incubated until cells were completely detached. […] The remaining activity in the cells were measured in a γ-counter. Afterwards, the cells were counted in a 1:1 solution of cell suspension and Trypan Blue. The tracer uptake was calculated using Microsoft Excel and corrected for the average number of cells and averaged. The logIC50 value was calculated using the non-linear regression algorithm for a one-site FITlogIC50 using PrismGraphPad 7.2. The graphs represented show the average of the three individual experiments, while the mentioned logIC50 was calculated from the mean of the three

The next data set deals with LNCaP tumor. Details: method as in PMID 27789722. The settings on record: cited from earlier work.
The nature of data set [3]: distribution coefficient logD, n-octanol/PBS. The format is physicochemical. The settings on record: n-octanol/PBS, pH 7.4, n-octanol/PBS pH 7.4; overall mean. How it is done: page 19: Figure S3: HPLC purification of [18F]PSMA-MIC02 (A) and after 4 h (B). 5. Distribution coefficient LogD. […] cup. 100 µL of the formulated final solution of [18F]PSMA-MIC01 or [18F]PSMA-MIC02 was added and vortexed for 1 minute and centrifuged for 5 min at […]. The different layers were separated and 100 µL of each layer were measured on a γ-counter. Based on the counts per minute (CPM) of each fraction, the partition coefficient was measured with the following formula: log(CPMoctanol/CPMPBS). The obtained data are as followed. Table S2. Counts per minute (CPM) of the 3 indidicually measured triplicates of [18F]PSMA-MIC01 of n- octanol and PBS. Octanol (CPM) PBS (CPM) BLK (CPM) LogD Mean SD […] No 1.2 2823.43 2715328.33 93.59 -2.99 […] No 2.3 394.49 640463.84 93.59 -3.21 […] No 3.2 3690.69 2357291.58 50.84 -2.81 No 3.3 5848.38 3956671.48 52.31 -2.83 -3.01 0.22 18 (1 picture or pasted object on this page, not shown here)

A further data set deals with LNCaP (PSMA+) xenografts. Put plainly: ex vivo organ distribution, LNCaP xenograft mice. The settings on record: LNCaP (PSMA+) xenograft, dissected after PET scan. Format: in vivo, Balb/c nude mice. How it is done:
All groups were evaluated by visual assessment of the PET image and the percentage injected dose per gram (%ID g^−1).
The animal experiments were all performed according to the ethical guidelines and approved by the local animal welfare committee of the University of Groningen (IvD number 15166-06-001. All animals were caged separately in individually ventilated cages.
7-12 week old immune deficient Balb/c nude mice were inoculated with 200 µL of a 1:1 suspension of medium containing approximately 4 x10^6 LNCaP cells (PSMA positive cells) or 5 x 10^6 PC3 cells (PSMA-negative cells) in RPMI-1640, and Matrigel Basement Membrane Matrix High concentration. The cells were subcutaneously inoculated on the right shoulder.
After 3 to 5 weeks for LNCaP-xenografts, 2-3 weeks for PC3-xenografts or when a tumor size of 1cm3 was reached, the animals were transported to the PET imaging facility. For the […]
prepared and 100 µL were injected via penile vein injection 30 min prior to the tracer injection. Animals were anesthetized at 5 % isoflurane and maintained under 2 % isoflurane enriched with O2. The dynamic PET scan was started within 5 min after tracer injection with an acquisition time of 90 min. The static scan was performed 60 min after tracer injection with an acquisition time of 30 min.
7.2. Organ distribution and Metabolite analysis.
After sacrificing the animals, the organs were dissected and measured in a γ-counter. The obtained CPM’s were normalized to %ID/g (Table shown in main text). […]
In order to check for the significant differences, we also checked for the Cohen’s d, a measurement to determine the effect size. It is calculated on the following formula:
Cohen′sD = Mean1− Mean2 . […]

[4] abbreviates: given as logIC50, single experiments, radioligand [18F]PSMA-1007, read-out: logIC50, individual experiments (converted).

T1 sequence (Q04609 whole entry): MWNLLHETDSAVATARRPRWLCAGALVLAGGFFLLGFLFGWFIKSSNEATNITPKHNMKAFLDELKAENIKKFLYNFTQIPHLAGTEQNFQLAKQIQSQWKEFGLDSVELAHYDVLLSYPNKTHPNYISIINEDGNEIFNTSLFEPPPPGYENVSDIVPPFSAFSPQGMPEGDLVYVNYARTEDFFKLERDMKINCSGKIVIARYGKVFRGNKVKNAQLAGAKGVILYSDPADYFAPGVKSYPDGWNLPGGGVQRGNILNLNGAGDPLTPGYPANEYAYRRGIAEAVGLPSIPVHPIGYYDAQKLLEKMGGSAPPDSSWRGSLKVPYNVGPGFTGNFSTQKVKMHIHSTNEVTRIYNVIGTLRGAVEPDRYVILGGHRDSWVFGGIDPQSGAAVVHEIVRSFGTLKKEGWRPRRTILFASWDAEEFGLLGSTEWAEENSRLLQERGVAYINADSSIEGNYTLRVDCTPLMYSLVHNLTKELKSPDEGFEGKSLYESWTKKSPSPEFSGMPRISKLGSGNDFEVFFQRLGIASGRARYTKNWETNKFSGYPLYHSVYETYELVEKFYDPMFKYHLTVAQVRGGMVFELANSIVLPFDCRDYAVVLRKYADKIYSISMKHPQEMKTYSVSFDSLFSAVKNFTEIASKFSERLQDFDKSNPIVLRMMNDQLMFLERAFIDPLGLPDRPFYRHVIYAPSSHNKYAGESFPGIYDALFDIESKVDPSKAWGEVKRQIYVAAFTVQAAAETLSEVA

Turning to `O=C(O)CC[C@H](NC(=O)N[C@@H](CCCCNC(=O)c1ccc(-c2cn(CCOCCOCCF)nn2)cc1)C(=O)O)C(=O)O` [F-PSMA-MIC01], the IC50 was 0.363 µM and 0.851 µM and 0.219 µM on PSMA [1] (setting [4]); 0.0575 µM and 0.138 µM and 0.257 µM on PSMA [2] (given as logIC50, single experiments, radioligand [68Ga]PSMA-11, read-out: logIC50, individual experiments (No 1-3) (converted)); 0.129 µM at PSMA [2] (printed as logIC50 (negative values), mean of three experiments, radioligand [68Ga]PSMA-11, 90 min 37°C, read-out: logIC50 (converted)).

Take `O=C(O)CC[C@H](NC(=O)N[C@@H](CCCCNC(=O)c1ccc(-c2cn(CCOCCOCCOc3ccc(CCF)cc3)nn2)cc1)C(=O)O)C(=O)O` [F-PSMA-MIC02]: on PSMA [1] (setting [4]), the IC50 is 0.0447 µM and 0.0457 µM and 0.0309 µM.

Turning to `O=C(O)CC[C@H](NC(=O)N[C@@H](CCCCNC(=O)c1ccc(Cn2cc(COCCOCCF)nn2)cc1)C(=O)O)C(=O)O` [F-PSMA-MIC03], the IC50 on PSMA [1] (printed as logIC50 (negative values), mean of n=3 (MIC03 n=4), radioligand [18F]PSMA-1007, read-out: logIC50 (converted)) is 0.275 µM.

Regarding `O=C(O)CC[C@H](NC(=O)N[C@@H](CCCCNC(=O)c1ccc(Cn2cc(COCCOCCOc3ccc(CCF)cc3)nn2)cc1)C(=O)O)C(=O)O` [F-PSMA-MIC04], the IC50 on PSMA [1] (setting [4]) is 0.245 µM and 0.151 µM and 0.49 µM.

Regarding `O=C(O)CC[C@H](NC(=O)N[C@@H](CCCCNC(=O)[C@H](Cc1ccc2ccccc2c1)NC(=O)c1ccc(CNC(=O)[C@H](CCC(=O)O)NC(=O)[C@H](CCC(=O)O)NC(=O)c2ccc([18F])nc2)cc1)C(=O)O)C(=O)O` [[^18F]PSMA‐1007], the LNCaP tumor uptake in the data set with LNCaP tumor is on record as 8.04±2.4 %ID g^−1.

For the molecule `O=C(O)CC[C@H](NC(=O)N[C@@H](CCCCNC(=O)c1ccc(-c2cn(CCOCCOCCOc3ccc(CC[18F])cc3)nn2)cc1)C(=O)O)C(=O)O` [[^18F]PSMA‐MIC02], the logD (usually the decadic logarithm of the distribution of all forms, ionised or not, between an organic phase and buffer at a given pH) in data set [3] was -3.22 ± 0.1.

`O=C([O-])CN(CCN(CC(=O)[O-])Cc1cc(CCC(=O)NCCCCCC(=O)NCCCC[C@H](NC(=O)N[C@@H](CCC(=O)O)C(=O)O)C(=O)O)ccc1[O-])Cc1cc(CCC(=O)O)ccc1[O-].[68Ga+3].[OH3+]` [[^68Ga]PSMA‐11, reference compound]: in the data set with LNCaP (PSMA+) xenografts, the “ex vivo uptake bone” value came to 0.1±0.1 %ID g^−1, the “ex vivo uptake brain” value stood at 0.0±0.0 %ID g^−1, the “ex vivo uptake heart” value is 0.2±0.0 %ID g^−1 and the “ex vivo uptake kidney” value was found to be 69.1±21.1 %ID g^−1. Also, in the data set on LNCaP (PSMA+) xenografts, the “ex vivo uptake large intestine” value was 0.7±0.9 %ID g^−1, the “ex vivo uptake liver” value came to 0.2±0.3 %ID g^−1, the “ex vivo uptake lungs” value is 1.1±0.4 %ID g^−1 and the “ex vivo uptake muscles” value is reported as 0.2±0.1 %ID g^−1. For the same molecule, in the data set on LNCaP (PSMA+) xenografts, the “ex vivo uptake pancreas” value is 0.6±0.6 %ID g^−1, the “ex vivo uptake plasma” value was determined as 1.0±0.5 %ID g^−1, the “ex vivo uptake salivary glands” value stood at 0.9±0.4 %ID g^−1 and the “ex vivo uptake small intestine” value stood at 0.5±0.6 %ID g^−1. In addition, in the data set on LNCaP (PSMA+) xenografts, the “ex vivo uptake spleen” value worked out at 15.9±7.3 %ID g^−1, the “ex vivo uptake stomach” value worked out at 0.4±0.2 %ID g^−1, the “ex vivo uptake tumor” value turned out to be 6.8±6.3 %ID g^−1 and the “ex vivo uptake urine” value is listed as 45.4±30.8 %ID g^−1. Moreover, in the data set on LNCaP (PSMA+) xenografts, the “ex vivo uptake whole blood” value is 2.2±3.8 %ID g^−1.

On to `O=C(O)CCc1ccc(O)c(CN(CCN(CC(=O)O)Cc2cc(CCC(=O)NCCCCCC(=O)NCCCC[C@H](NC(=O)N[C@@H](CCC(=O)O)C(=O)O)C(=O)O)ccc2O)CC(=O)O)c1` [precursor of PSMA-11, reference compound], for which, at PSMA [2] (given as logIC50, single experiments, radioligand [68Ga]PSMA-11, listed as PSMA-11 precursor), the “logIC50, individual experiments (No 1-3)” value is -7.12 and -7.03 and -7.53.
